Molecular target: T1, Human eIF4E (Homo sapiens, UniProt P06730)
T1 construct: Human eIF4E (aa 28-217) with a C-terminal His-tag; made in house
Assay: Human eIF4E/4G2 binding assay (TR-FRET)
Details: eIF4E (aa 28-217) with biotin labeled 4G2 peptide
Method: Human eIF4E (aa 28-217) with a C-terminal His-tag was expressed in E. coli in inclusion bodies. The protein was solubilized with 8 M urea and purified under denaturing conditions using nickel-charged HisTrap HP columns (GE Healthcare). The purified protein was then refolded by diluting in 20 mM Hepes pH 7.0, 0.5 M NaCl, 1 mM DTT, 1 mM EDTA, 0.5 M arginine plus 6 M urea, and then dialyzing overnight into the same buffer without the urea. The protein was further dialyzed into 20 mM Hepes, pH 6.5, 50 mM NaCl, 1 mM EDTA, 1 mM DTT, and concentrated using Hitrap SP sepharose FF columns (GE Healthcare). The concentrated protein was dialyzed into 20 mM Hepes, pH 7.0, 0.5M NaCl, 5 mM DTT and 10% glycerol, and stored at −80° C. until use.
Test compounds (3.43 mM stock in DMSO) were diluted 2-fold in series in DMSO (10 concentration points). Compound solutions (1.2 μl/well) were added into black 384-well polypropylene microplates (Matrix, Thermal Scientific). Twenty-two microliters per well of Assay Buffer (50 mM NaPi, pH 6.5, 50 mM KCl, 1 mM DTT and 0.5 mg/ml gamma globulin) and eight microliters per well of 82.5 nM purified eIF4E in Assay Buffer were added. The samples were incubated at room temperature (20-23° C.) for 15 min. Biotin labeled 4G2 peptide (Ac-Lys-Gln-Tyr-Asp-Arg-Glu-Phe-Leu-Leu-Asp-Phe-Gln-Phe-Met-Pro-Lys(Aha-Bio)-NH2, 1.75 μM stock in DMSO) was diluted to 0.14 μM in Assay Buffer (without DTT) and 5 μl/well was added. The samples were incubated at room temperature for 15 min. Five microliters per well of 6.4 nM Eu-streptavidin (Eu-SA, Perkin Elmer) and 80 nM Allophycocyanin (APC)-anti His antibody (Columbia Biosciences) in Assay Buffer (without DTT) were then added and the samples were incubated at room temperature for 20 min.
Assay signals were monitored by reading excitation at 340 nm and emission fluorescence at 615 nm and 665 nm on an Envision reader (Perkin Elmer). Normalized TR-FRET (time-resolved fluorescence resonance energy transfer) assay signal (Rn) was calculated by the formula: Rn═[(A−Ba−C×D)/(D−Bd)]×(Dc−Bd) • Where A is the fluorescence intensity of the sample at 665 nm, • D is the fluorescence intensity of the sample at 615 nm, • Ba and Bd are plate backgrounds at 665 nm and 615 nm, respectively, • Dc is the fluorescence intensity of 0.78 nM Eu-SA in the assay buffer at 615 nm • The cross-talk factor (C) is determined by the following formula: C=(Ac−Ba)/(Dc−Bd) • Where Ac is the fluorescence intensity of 0.78 nM Eu-SA in the assay buffer at 665 nm.
IC50 values were calculated using xLFit program (IDBS).

T1 sequence (P06730 28-217): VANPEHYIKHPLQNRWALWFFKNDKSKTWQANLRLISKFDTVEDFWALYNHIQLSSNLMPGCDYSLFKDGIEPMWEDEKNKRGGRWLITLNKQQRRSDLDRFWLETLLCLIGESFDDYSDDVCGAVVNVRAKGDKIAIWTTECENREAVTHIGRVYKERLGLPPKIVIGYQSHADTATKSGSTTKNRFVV

Row | Structure (SMILES) | IC50 [µM]
1 | Cc1nc(N2CCOC(C(=O)O)C2)sc1-c1ccc(-c2ccc(F)cc2)cc1 (centres unmarked) [Compound I-237, 4-(5-(4′-fluorobiphenyl-4-yl)-4-methylthiazol-2-yl) morpholine-2-carboxylic acid] | 5 to 25
2 | O=C(O)C1(CNc2nc(-c3ccc(-c4cnco4)cc3)c(-c3ccccc3)s2)CC1 [Compound I-44] | > 25
3 | CC1(C(=O)O)CN(c2nc(-c3ccc(Oc4ccccc4)cc3)c(-c3cccnc3)s2)C1 [Compound I-165] | > 25
4 | O=C(O)C1CCN(c2nc(-c3ccc(-c4cnco4)cc3)c(-c3ccccc3)s2)CC1 [Compound I-52] | > 25
5 | CC(C)C(CC(=O)O)Nc1nc(-c2cncnc2)c(-c2ccc(-c3cnco3)cc2)s1 (centres unmarked) [Compound I-2] | > 25
6 | CC(CNc1nc(-c2ccc(-c3ccc(F)cc3)cc2)c(-c2cccnc2)s1)C(=O)O (centres unmarked) [Compound I-103] | > 25
7 | O=C(O)C[C@@H]1CCCN1c1nc(-c2ccc(-c3ccc(F)cc3)cc2)c(-c2ccccc2)s1 [Compound I-226] | < 5
8 | Cc1sc(N2CCOC(C(=O)O)C2)nc1-c1ccc(-c2ccc(F)cc2)cc1 (centres unmarked) [Compound I-236, 4-(4-(4′-fluorobiphenyl-4-yl)-5-methylthiazol-2-yl) morpholine-2-carboxylic acid] | 5 to 25
9 | O=C(O)C1CN(c2nc(-c3ccc(Oc4ccccc4)cc3)c(-c3cccc4[nH]ccc34)s2)CCO1 (centres unmarked) [Compound I-216] | > 25
10 | O=C(O)C1CCCN(c2nc(-c3ccc(-c4cnco4)cc3)c(-c3cccc4[nH]ccc34)s2)C1 (centres unmarked) [Compound I-34] | > 25
11 | O=C(O)C1(CNc2nc(-c3ccc(Oc4ccccc4)cc3)cs2)CC1 [Compound I-195] | > 25
12 | CC1(C(=O)O)CCCN(c2nc(-c3ccc(-c4ccc(F)cc4)cc3)c(-c3cccc4[nH]ccc34)s2)C1 (centres unmarked) [Compound I-147] | < 5
13 | O=C(O)C1(CNc2nc(-c3ccc(-c4ccc(F)cc4)cc3)c(-c3cccc4[nH]ccc34)s2)CC1 [Compound I-125] | < 5
14 | O=C(O)C1CN(c2nc(-c3ccc(-c4cnco4)cc3)c(-c3cccc4[nH]ccc34)s2)C1 [Compound I-12] | > 25
15 | O=C(O)C1CN(c2nc(-c3ccc(-c4ccc(F)cc4)cc3)c(-c3cccnc3)s2)CCO1 (centres unmarked) [Compound I-142] | > 25
16 | O=C(O)C1CN(c2nc(-c3ccc(Oc4ccccc4)cc3)c(-c3cccc4[nH]ccc34)s2)C1 [Compound I-161] | 5 to 25
17 | CC1(C(=O)O)CCCN(c2nc(-c3ccc(-c4cnco4)cc3)c(-c3cccnc3)s2)C1 (centres unmarked) [Compound I-62] | > 25
18 | CCCC(CNc1nc(-c2ccc(-c3cnco3)cc2)c(-c2cccc3[nH]ccc23)s1)C(=O)O (centres unmarked) [Compound I-21] | > 25
19 | CC(CNc1nc(-c2ccc(-c3ccc(F)cc3)cc2)cs1)C(=O)O (centres unmarked) [Compound I-99] | > 25
20 | CCCC(CNc1nc(-c2ccc(Oc3ccccc3)cc2)cs1)C(=O)O (centres unmarked) [Compound I-167] | > 25

Row | Structure (SMILES) | IC50 [µM]
21 | CC1(C(=O)O)CN(c2nc(-c3ccc(Oc4ccccc4)cc3)c(-c3cccc4[nH]ccc34)s2)C1 [Compound I-166] | 5 to 25
22 | CCCC(CNc1nc(-c2ccc(-c3ccc(F)cc3)cc2)c(-c2cccnc2)s1)C(=O)O (centres unmarked) [Compound I-91] | > 25
23 | CC1(C(=O)O)CCCN(c2nc(-c3ccc(Oc4ccccc4)cc3)c(-c3cccc4[nH]ccc34)s2)C1 (centres unmarked) [Compound I-220] | < 5
24 | O=C(O)C1CCN(c2nc(-c3ccc(Oc4ccccc4)cc3)c(-c3cncnc3)s2)C1 (centres unmarked) [Compound I-192] | > 25
25 | O=C(O)C1(CNc2nc(-c3ccc(-c4cnco4)cc3)c(-c3cccc4[nH]ccc34)s2)CC1 [Compound I-47] | > 25
26 | CC1(C(=O)O)CN(c2nc(-c3ccc(-c4cnco4)cc3)c(-c3cccc4[nH]ccc34)s2)C1 [Compound I-16] | > 25
27 | O=C(O)C1(CNc2nc(-c3ccc(-c4cnco4)cc3)c(-c3cncnc3)s2)CC1 [Compound I-45] | > 25
28 | O=C(O)C1CN(c2nc(-c3ccc(Oc4ccccc4)cc3)c(-c3ccccc3)s2)CCO1 (centres unmarked) [Compound I-213] | < 5
29 | CC1(C(=O)O)CN(c2nc(-c3ccc(-c4cnco4)cc3)c(-c3ccccc3)s2)C1 [Compound I-13] | > 25
30 | O=C(O)CC1CCCN1c1nc(-c2ccc(-c3ccc(F)cc3)cc2)c(-c2ccccc2)s1 (centres unmarked) [Compound I-111] | < 5
31 | O=C(O)C1CCCN(c2nc(-c3ccc(Oc4ccccc4)cc3)c(-c3cncnc3)s2)C1 (centres unmarked) [Compound I-183] | > 25
32 | O=C(O)C1CCN(c2nc(-c3ccc(-c4cnco4)cc3)c(-c3cccnc3)s2)C1 (centres unmarked) [Compound I-42] | > 25
33 | CC(CNc1nc(-c2ccc(-c3ccc(F)cc3)cc2)c(-c2cccc3[nH]ccc23)s1)C(=O)O (centres unmarked) [Compound I-104] | 5 to 25
34 | CC(CC(=O)O)Nc1nc(-c2ccc(-c3ccc(F)cc3)cc2)cs1 (centres unmarked) [Compound I-93] | > 25
35 | CCCC(CNc1nc(-c2ccc(Oc3ccccc3)cc2)c(-c2cncnc2)s1)C(=O)O (centres unmarked) [Compound I-169] | > 25
36 | O=C(O)[C@H]1CCCN(c2nc(-c3ccc(-c4ccc(F)cc4)cc3)c(-c3ccccc3)s2)C1 [Compound I-224] | < 5
37 | CCCC(CNc1nc(-c2ccc(-c3ccc(F)cc3)cc2)c(-c2ccccc2)s1)C(=O)O (centres unmarked) [Compound I-89] | < 5
38 | CCCC(CNc1nc(-c2ccc(Oc3ccccc3)cc2)c(-c2cccc3[nH]ccc23)s1)C(=O)O (centres unmarked) [Compound I-171] | 5 to 25
39 | O=C(O)C1CC(CNc2nc(-c3ccc(-c4ccc(F)cc4)cc3)c(-c3cccc4[nH]ccc34)s2)C1 (centres unmarked) [Compound I-131] | 5 to 25
40 | CC(CNc1nc(-c2ccc(-c3ccc(F)cc3)cc2)c(C(F)(F)F)s1)C(=O)O (centres unmarked) [Compound I-229] | < 5

Row | Structure (SMILES) | IC50 [µM]
41 | O=C(O)C1CCN(c2nc(-c3ccc(-c4ccc(F)cc4)cc3)c(-c3cncnc3)s2)C1 (centres unmarked) [Compound I-117] | > 25
42 | O=C(O)C1CCN(c2nc(-c3ccc(Oc4ccccc4)cc3)cs2)C1 (centres unmarked) [Compound I-190] | > 25
43 | CC1(C(=O)O)CN(c2nc(-c3ccc(Oc4ccccc4)cc3)cs2)C1 [Compound I-162] | > 25
44 | O=C(O)C1CCCN(c2nc(-c3ccc(-c4cnco4)cc3)c(-c3cncnc3)s2)C1 (centres unmarked) [Compound I-32] | > 25
45 | O=C(O)C1CC(CNc2nc(-c3ccc(-c4ccc(F)cc4)cc3)c(Br)s2)C1 (centres unmarked) [Compound I-127] | 5 to 25
46 | CC(C)C(CC(=O)O)Nc1nc(-c2ccc(-c3ccc(F)cc3)cc2)c(Br)s1 (centres unmarked) [Compound I-65] | 5 to 25
47 | Cc1nc(N2CCCC(C(=O)O)C2)sc1-c1ccc(-c2ccc(F)cc2)cc1 (centres unmarked) [Compound I-238] | 5 to 25
48 | O=C(O)[C@@H]1CCCN(c2nc(-c3ccc(Oc4ccccc4)cc3)c(-c3ccccc3)s2)C1 [Compound I-227] | < 5
49 | O=C(O)C1CC(CNc2nc(-c3ccc(Oc4ccccc4)cc3)cs2)C1 (centres unmarked) [Compound I-200] | > 25
50 | O=C(O)C1CCN(c2nc(-c3ccc(-c4ccc(F)cc4)cc3)c(-c3ccccc3)s2)CC1 [Compound I-136] | < 5
51 | O=C(O)C1CN(c2nc(-c3ccc(-c4cnco4)cc3)c(-c3cccnc3)s2)C1 [Compound I-11] | > 25
52 | O=C(O)CC1CCCN1c1nc(-c2ccc(Oc3ccccc3)cc2)c(-c2cccc3[nH]ccc23)s1 (centres unmarked) [Compound I-189] | 5 to 25
53 | O=C(O)CC1CCCN1c1nc(-c2ccc(-c3cnco3)cc2)c(-c2cncnc2)s1 (centres unmarked) [Compound I-37] | > 25
54 | O=C(O)C1CCN(c2nc(-c3ccc(-c4cnco4)cc3)c(-c3cccnc3)s2)CC1 [Compound I-54] | > 25
55 | O=C(O)C1CN(c2nc(-c3ccc(-c4ccc(F)cc4)cc3)c(-c3cncnc3)s2)C1 [Compound I-78] | > 25
56 | CC(CC(=O)O)Nc1nc(-c2ccc(-c3cnco3)cc2)c(-c2cncnc2)s1 (centres unmarked) [Compound I-23] | > 25
57 | CC(C)C(CC(=O)O)Nc1nc(-c2ccc(-c3ccc(F)cc3)cc2)cs1 (centres unmarked) [Compound I-64] | 5 to 25
58 | CC(C)(CNc1nc(-c2ccc(-c3cnco3)cc2)c(-c2cccnc2)s1)C(=O)O [Compound I-7] | > 25
59 | O=C(O)C1CCN(c2nc(-c3ccc(-c4cnco4)cc3)c(-c3ccccc3)s2)C1 (centres unmarked) [Compound I-40] | > 25

— patent US12030875B2, “EIF4E inhibitors and uses thereof” (PIC Therapeutics, Inc., priority 2018, dated 2024)
